Measured values published in patent publication US7601737B2, “Isotopically substituted proton pump inhibitors” (priority 2005, dated 2009).

How the values were obtained:
[1] = in vitro; conditions: human, hepatocytes
Description: (§1) 5-hydroxy-omeprazole was quantified using LC-MS/MS.

[2] = system: human cryopreserved hepatocytes; assay: in vitro; conditions: human, hepatocytes
Description: as §1

[3] = target: CYP3A4 (Homo sapiens, UniProt P08684); assay: Metabolic clearance in recombinant human cytochrome P450 CYP3A4; conditions: recombinant P450 1 nmol/mL, disappearance of parent compound; lower limit of assay resolution 17.6 μl/min/nmol P450
Description: In order to evaluate the properties of the compounds according to the invention the compounds' intrinsic clearances in recombinant human cytochrome P450 (CYP) isoenzymes CYP1A2, CYP2C8, CYP2C19, CYP2D6, CYP3A4, and CYP3A5 were determined.
Incubations were carried out in triplicate. […] The intrinsic clearance was determined based on the rate of disappearance of parent compound. Pantoprazole, omeprazole and the deuterated analogues were determined by HPLC-UV. The lower limit of assay resolution based on experimental variability was 17.6 μl/min/nmol P450.

[4] = target: T1, CYP2C19 (Homo sapiens, UniProt P33261); assay: Metabolic clearance in recombinant human cytochrome P450 CYP2C19; format: in vitro ADME; conditions: recombinant P450 0.5 nmol/mL, disappearance of parent compound; lower limit of assay resolution 17.6 μl/min/nmol P450
T1 construct: purchased Cypex, Dundee, UK
Description: Incubations were carried out in triplicate.

[5] = Metabolisation in liver microsomes (mini pig); format: in vitro ADME; conditions: 10 μM, 90 minutes incubation
Description: (§2) Pantoprazole or examples 1 or 2 (10 μM each) were incubated with liver microsomes (source: all from GenTest except Mini Pig from TEBU),incubation in 1 mg/ml protein, 100 mM Tris-HCl, pH 7.4, 1 mM NADPH2). Reaction was terminated after 90 minutes by liquid nitrogen, the parent compound was detected by HPLC (10 mM KH2PO4, pH 7.4, acetonitril gradient 20-44%).

[6] = Metabolisation in liver microsomes (human); format: in vitro ADME; conditions: 10 μM, 90 minutes incubation
Description: as §2

[7] = Metabolisation in liver microsomes (guinea pig); format: in vitro ADME; conditions: Guinee pig liver microsomes, 10 μM, 90 minutes incubation
Description: as §2

[8] = system: human cryopreserved hepatocytes; conditions: human, 60 min
Description: Following the evaluation of the metabolic clearance of the compounds according to the invention via P450 enzymes, the formation kinetics of the main metabolite identified in humans, i.e. M2 (5-(difluoromethoxy)-2-[[(3-methoxy-4-sulfate-2-pyridyl)-methyl]sulfinyl]-1H-benzimidazole) was determined. Because the generation of M2 involves the oxidation of the 4-methoxy-pyridyl group by CYP2C19 and subsequent conjugation with 3′-phosphoadenosine-5′-phosphosulfate (PAPS) by an unidentified sulphotransferase, human cryopreserved hepatocytes were used since both phase I and phase II enzymes are functional in this in vitro system.
M2 formation rate under these conditions was linear up to 60 min. The M2 formation rate was determined at nine different compound concentrations (0, 0.5, 1.0, 2.5, 5.0, 10.0, 25.0, 50.0 and 100 μMol/L) incubated in duplicate for 60 min at 37° C. M2 was quantified using LC-MS/MS. M2 isolated from human urine was used as an external standard. The concentration to reach the half-maximal formation rate (KM-value) and the maximal formation rate (Vmax) were obtained by non-linear regression analysis using the Michaelis-Menten equation. The intrinsic clearance (Clint) was obtained dividing Vmax over KM.

[9] = Metabolisation in liver microsomes (dog); format: in vitro ADME; conditions: 10 μM, 90 minutes incubation
Description: as §2

[10] = Metabolisation in liver microsomes (monkey); format: in vitro ADME; conditions: 10 μM, 90 minutes incubation
Description: as §2

[11] = Metabolisation in liver microsomes (rat); format: in vitro ADME; conditions: 10 μM, 90 minutes incubation
Description: as §2

[12] = Metabolisation in liver microsomes (mouse); format: in vitro ADME; conditions: 10 μM, 90 minutes incubation
Description: as §2

CYP3A4, sequence (P08684 whole entry): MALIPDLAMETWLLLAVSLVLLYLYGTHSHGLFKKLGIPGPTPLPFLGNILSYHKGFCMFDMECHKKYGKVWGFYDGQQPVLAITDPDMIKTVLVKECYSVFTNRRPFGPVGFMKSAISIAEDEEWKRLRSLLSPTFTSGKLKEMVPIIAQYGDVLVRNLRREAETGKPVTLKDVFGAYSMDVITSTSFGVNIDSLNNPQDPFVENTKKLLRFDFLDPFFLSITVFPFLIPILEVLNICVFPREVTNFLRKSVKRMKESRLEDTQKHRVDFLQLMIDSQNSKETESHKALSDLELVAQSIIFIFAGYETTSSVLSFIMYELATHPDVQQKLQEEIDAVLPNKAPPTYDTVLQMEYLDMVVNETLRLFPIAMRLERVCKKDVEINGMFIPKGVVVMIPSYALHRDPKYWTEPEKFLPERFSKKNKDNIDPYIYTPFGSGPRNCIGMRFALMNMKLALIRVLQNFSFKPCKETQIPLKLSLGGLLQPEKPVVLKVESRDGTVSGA
T1 sequence (P33261 whole entry): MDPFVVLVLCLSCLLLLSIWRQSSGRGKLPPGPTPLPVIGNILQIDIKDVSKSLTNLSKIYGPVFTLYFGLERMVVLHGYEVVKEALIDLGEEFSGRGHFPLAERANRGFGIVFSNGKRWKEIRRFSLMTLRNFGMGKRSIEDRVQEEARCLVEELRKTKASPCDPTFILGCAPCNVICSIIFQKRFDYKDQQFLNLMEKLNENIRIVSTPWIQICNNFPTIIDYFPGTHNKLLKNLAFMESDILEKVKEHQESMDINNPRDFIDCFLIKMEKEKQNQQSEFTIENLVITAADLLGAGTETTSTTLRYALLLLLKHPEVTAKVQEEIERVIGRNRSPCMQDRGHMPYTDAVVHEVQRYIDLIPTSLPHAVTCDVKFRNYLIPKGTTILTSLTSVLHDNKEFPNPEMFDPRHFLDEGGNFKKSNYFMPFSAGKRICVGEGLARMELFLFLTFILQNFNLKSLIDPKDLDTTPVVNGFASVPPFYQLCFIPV

For COc1ccc2[nH]c([S+]([O-])Cc3ncc(C)c(OC)c3C)nc2c1 (racemic) [rac. Omeprazole, 5-methoxy-2-[(4-methoxy-3,5-dimethyl-2-pyridinyl)methylsulphinyl]-1H-benzimidazole, reference compound], the hepatocyte CLint [1] was 2 µL/min/1e6 cells, the “% Σ Clint rac. Omeprazole” value [2] was 100% and the “Contribution of CYP3A4 to the oxidative metabolism” value [3] was “contribute to the oxidative metabolism”. For the same compound, the “Contribution of CYP2C19 to the oxidative metabolism” value [4] was “contribute to the oxidative metabolism”.
In the case of COc1ccnc(C[S+]([O-])c2nc3ccc(OC(F)F)cc3[nH]2)c1OC (centres unmarked) [H-Pantoprazole, 5-difluoromethoxy-2-[(3,4-dimethoxy-2-pyridinyl)methylsulphinyl]-1H-benzimidazole, reference compound], the “Percent of compound metabolized” value [5] is reported as 26%, the “Percent of compound metabolized” value [6] is reported as 28% and the “Percent of compound metabolized” value [7] is reported as 78%. For the same compound, the “Substrate concentrations at which formation of M2 appeared to be inhibited” value [8] was “above 100 μM”, the “Percent of compound metabolized” value [9] was 20% and the “Percent of compound metabolized” value [10] was 73%. For the same compound, the “Contribution of CYP3A4 to the oxidative metabolism” value [3] was “contribute to the oxidative metabolism”, the “Percent of compound metabolized” value [11] was 61% and the “Percent of compound metabolized” value [12] was 62%. The “Contribution of CYP2C19 to the oxidative metabolism” value [4] was “contribute to the oxidative metabolism”.
